Measured values reported in patent US8222278B2, “Treatment of attention-deficit/hyperactivity disorder” (Abbott Laboratories, priority 2008, dated 2012).
Like-named read-outs stand apart in the source and are kept apart here.

Key:
[1] = Steady state pharmacokinetics of ABT-894 after multiple oral doses; assay type: in vivo, human; conditions: for Cave / Cmin / Cmax / AUC: multiple doses, steady state; for Tmax: QD or BID
Description: Steady state pharmacokinetic parameters of ABT-894 were determined in randomized, double-blind, placebo-controlled, parallel-design or crossover-design studies conducted with ABT-894. In these studies ABT-894 or matching placebo was administered orally either once daily (QD) or twice daily (BID) to subjects and serial blood samples were collected in order to determine ABT-894 plasma concentrations and pharmacokinetic parameters.
As used herein, Cmax refers to peak plasma concentration of a therapeutic agent, in this case ABT-894, under steady state conditions.
As used herein, Cave refers to average plasma concentration of a therapeutic agent. in this case ABT-894, under steady state conditions.
As used herein, Cmin refers to the minimum plasma concentration of a therapeutic agent, in this case ABT-894, under steady state conditions.
As used herein. Tmax refers to the time required to reach peak concentration.
As used herein, AUC12 refers to the area under the curve determined for 12 hours.
As used herein. AUC24 refers to the area under the curve determined for 24 hours.

adults with ADHD = assay: Study A: patient-reported health outcomes (AAQoL, WPAI); assay type: in vivo, human; parameters: WPAI Absenteeism (employed), Mean Diff. / WPAI Impaired Work Effectiveness (employed), Mean Diff. / AAQoL Total, Mean Diff. / WPAI Overall Activity Impairment (all), Mean Diff. / WPAI Overall Work Impairment (employed), Mean Diff.: scale not given here
Description: A clinical study (Study A) was conducted to assess the safety and efficacy of ABT-894 compared to placebo in adults with ADHD and to evaluate the dose-response relationship.
Subjects in each dose group received, in random order, both ABT-894 and placebo according to a 2×2 crossover design. Each treatment period was 4 weeks separated by a 2-week washout period.
Secondary efficacy endpoints included the CAARS:Inv Inattentive and Hyperactive/Impulsive Subscale Scores, Clinical Global Impression-ADHD-Severity Scale (CGI-ADHD-S). Adult ADHD Investigator Symptom Report Scale (AISRS), including total and subscales, and the Self-rated Connors Adult ADHD Rating Scale (CAARS-Self). Health outcomes including the Adult ADHD Quality of Life Scale (AAQoL) and Work Productivity and Activity Impairment Questionnaire (WPAI) were used to evaluate the validity of these scales in this study population for use in subsequent clinical trials.

For `Clc1cc(N2C[C@@H]3CN[C@@H]3C2)cnc1Cl` [ABT-894, 3-(5,6-Dichloro-pyridin-3-yl)-1S,5S-3,6-diazabicyclo[3.2.0]heptane], the Cave ([1]; 2 mg QD, plasma) was “about 2 ng/mL”, the Cmin ([1]; 2 mg QD, plasma) was “about 0.3 ng/mL” and the Cave ([1]; 4 mg BID, plasma) was 6 to 10 ng/mL. The Cmin ([1]; 4 mg BID, plasma) was 2 to 4 ng/mL, the Cmax ([1]; human, oral, 2 mg QD, plasma) was ~5 ng/mL and the AUC ([1]; human, oral, 2 mg QD, plasma, read-out: AUC24) was ~46 ng·h/mL. The Cmax ([1]; human, oral, 4 mg BID, plasma) was 11 to 15 ng/mL, the AUC ([1]; human, oral, 4 mg BID, plasma, read-out: AUC12) was 72 to 114 ng·h/mL and the Tmax ([1]; human, plasma, po, read-out: Tmax) was 2 to 4 h. For the same compound, the Tmax ([1]; oral) was 2 to 3 h, the “Measures of quality of life relative to placebo” value (adults with ADHD; ABT-894 2 mg QD) was “improved measures of quality of life relative to placebo” and the “WPAI Impaired Work Effectiveness (employed), Mean Diff.” value (adults with ADHD; ABT-894 4 mg BID, N 22) was −0.104. The “WPAI Overall Work Impairment (employed), Mean Diff.” value (adults with ADHD; ABT-894 4 mg BID, N 22) was −0.093 and the “WPAI Overall Activity Impairment (all), Mean Diff.” value (adults with ADHD; ABT-894 4 mg BID, N 43) was −0.108.
